The text below walks through data of patent publication US10730022B2, “Process for the separation of organic compounds” (VITO NV, priority 2015, dated 2020).

The conditions of series [1]: cited from earlier work.
Series [2] in a line: membrane contactor extraction of MPPA/IPA mixture from pH 10 feed into pH 3 sodium acetate collection solution (Example 2). The note with it: pH 3 collection, 30° C., 20 l/h, 300 to 500 mbar. The class given is physicochemical. How it is done: A mixture of isopropyl amine (IPA) and 1-methyl-3-phenylpropylamine (MPPA) in a pH 10 aqueous buffer (feed solution) was applied to a first compartment of a membrane contactor module, with the second compartment comprising a sodium acetate buffer (pH 3) (collection solution). The membrane separation was performed at a flow rate of 20 l/h, temperature of 30° C. and transmembrane pressure of 300 to 500 mbar. Feed and collection solutions were continuously recycled in the membrane contactor module. The membrane used was a phenyl phosphonic acid functionalized ceramic membrane (as in Example 1), wherein both the external surface as the internal surface of the pores was linked to the organic moiety. The amine concentration in the extracting sodium acetate solution was followed up over time (FIG. 5).

The nature of series [3]: membrane contactor extraction of transamination reaction mixture in organic solvent into pH 3 sodium acetate buffer (Example 3). The class given is physicochemical. The note with it: organic solvent feed, pH 3 sodium acetate extracting solution. The procedure:
An enzymatically catalysed transamination reaction is performed in an organic solvent, using benzyl acetone (BA) and isopropyl amine (IPA) as respectively substrate ketone and substrate amine. […] The resulting products are acetone (as co-product ketone) and (S-)1-methyl-3-phenylpropylamine (S-MPPA—a chiral amine). This reaction is prone to product inhibition by MPPA.
The reaction mixture is passed through a membrane contactor module, using an acidic sodium acetate buffer (pH 3) as extracting solution.

A short description of series [4]: % uncharged amine at pH 10, calculated using Henderson-Hasselbalch equation. The class given is physicochemical. The conditions noted are these: for % uncharged at pH 10: calculated using Henderson-Hasselbalch equation; for uncharged/charged ratio of the amine at the pH of the feed solution: pH 10 feed. How it is done: Assuming that only the uncharged amine can pass through the membrane, the (theoretical) extractable amount can be calculated using the % uncharged amine at pH 10 (Table 1). For MPPA (596 mg in feed solution) and MBA (484 mg in the feed solution) this corresponds to 113 mg and 358 mg theoretical extractable amine, respectively. After 7 h, 15% of this amount was extracted for MPPA, while only 3% of this amount was extracted for MBA.

The conditions of series [5]: cited from earlier work. The source holds these as a separate data set.
For series [6] the following is noted: octanol/water; cited from earlier work.
Series [7] can be described thus: membrane contactor extraction of MPPA/MBA mixture from pH 10 feed into pH 3 sodium acetate collection solution (Example 1). The note with it: for time of membrane extraction after which amine was detected in the acidic extracting solution: MPPA/MBA mixture, pH 10 feed, pH 3 collection, 30° C., 20 l/h, 300-500 mbar; for % of theoretical extractable amount extracted: after 7 h; for theoretical extractable amine: from % uncharged at pH 10, 596 mg MPPA and 484 mg MBA in feed. The class given is physicochemical. How it is done:
A mixture of MPPA and MBA in a pH 10 aqueous buffer (feed solution) was applied to a first compartment of a membrane contactor module, with the second compartment comprising a sodium acetate buffer (pH 3) (collection solution). The membrane separation was performed at a flow rate of 20 l/h, a temperature of 30° C. and a transmembrane pressure of 300-500 mbar. Feed and collection solutions were continuously recycled in the membrane contactor module. The membrane used was a phenyl phosphonic acid functionalized ceramic membrane, wherein both the external surface as the internal surface of the pores was linked to the organic moiety. […] The amine concentration in the extracting sodium acetate solution was followed up over time (FIG. 4).

SMILES strings stand for the structures. “And” between values parts separate entries of the source, which are not always exact repeats. Equal entries are not always repeated.

For the compound `CC(=O)CCc1ccccc1` [BA, benzyl acetone], in series [1], the “solubility in aqueous liquids” value was 10 mM and 1.48 g/1.
Broadly, the pKa is the pH at which an ionisable group is half protonated. One may read the LogP as the decadic logarithm of the partition coefficient of the neutral form, usually between octanol and water. Take `CC(C)N` [IPA, isopropyl amine]: the “time of membrane extraction after which amine was detected in the acidic extracting solution” value (shortened to “time of membrane extraction”) in series [2] is “about 7 h”. Further, the membrane passage behaviour result in series [3] is reported as “mainly remains in the feed solution”. For the same compound, the “% uncharged at pH 10” value in series [4] is given as 16%. Further, in series [5], the pKa is reported as 10.73. Also, the LogP in series [6] is recorded as 0.391.
With `CNCc1ccccc1` [MBA, methylbenzylamine], in series [7], the “time of membrane extraction” value was found to be 3.5 h, the “% of theoretical extractable amount extracted” value is given as 3% and the theoretical extractable amine amounted to 358 mg. Further, in series [4], the “% uncharged at pH 10” value is listed as 74% and the “uncharged/charged ratio of the amine at the pH of the feed solution” value is reported as “≈ 3”. The pKa in series [5] was 9.54. Moreover, in series [6], the LogP is on record as 1.7.
`CC(N)CCc1ccccc1` (stereo not shown) [MPPA, 1-methyl-3-phenylpropylamine]: the “time of membrane extraction” value in series [2] was “less than 1 h”. In series [7], the “time of membrane extraction” value is listed as “less than 1 h”, the “% of theoretical extractable amount extracted” value was determined as 15% and the theoretical extractable amine came out at 113 mg. In addition, the membrane passage behaviour entry in series [3] is recorded as “efficiently passes the membrane”. Also, in series [4], the “% uncharged at pH 10” value is 19% and the “uncharged/charged ratio of the amine at the pH of the feed solution” value is “≈ 0.25”. In addition, the pKa in series [5] was 10.63. The log partition coefficient (LogP) in series [6] is reported as 2.264.
